Experimental data: patent publication US20260297106A1, “SPIROCYCLIC SUBSTITUTED OXOISOINDOLINYL PIPERIDINE-2,6-DIONE COMPOUND” (Bristol-Myers Squibb Company, priority 2023, published 2026)

Tests used:
[1] = molecular target: T1, IKZF2 Helios (Homo sapiens, UniProt Q96SW2+Q9UKS7); assay: Human Regulatory T Cell Degradation Assay (IKZF2 Helios); assay type: cell-based; parameters: T cells were isolated from fresh healthy leukopaks; endogenous in cells; host or cells: FACS-sorted primary human CD4+ CD127low CD25+ Treg cells from healthy leukopaks; settings: human regulatory T cells, 20 hours; for Dmax: Regulatory T cell, 100% = no detectable protein remaining, read-out: IKZF2 Helios max % deg. observed; for DC50: concentration reducing protein level by 50% vs DMSO
Method: Cryopreserved human regulatory T cells were thawed in RPMI+10% FBS+20 ng/mL IL-2. After being spun at 1200 rpm for 5 mins, the cells were resuspended in RPMI+10% FBS+20 ng/ml and rested at 37° C. with 5% CO2 for 3 hours. The cells were then plated at 40,000 cells/well in 40 μL RPMI+10% FBS+20 ng/ml human IL~2 in a 384 well cell culture plate prior to using acoustic dispensing technology (ECHO 555) for adding compounds of interest. Cell cultures were incubated for 20 hours at 37° C. and 5% CO2. In order to facilitate analysis, cell cultures were spun down at 1200 rpm for 5 minutes and the supernatant was discarded using an EL406 plate washer. After washing three times with 70 μL PBS, cell pellets were resuspended in 50 μL of near IR viability staining solution (Life Technologies, Cat #L34975) and incubated for 30 minutes on ice protected from light. Cells were washed three times with 70 μL PBS+0.5% BSA using an EL406 plate washer. After shaking the plate to dislodge the cell pellet, cells were resuspended in 50 μL of Fixation Buffer (eBioScience FoxP3 buffer set 00-5523-00) for 60 minutes at room temperature. After centrifuging and discarding the supernatant, cells were permeabilized with 50 μL of permeabilization buffer (eBioScience FoxP3 buffer set 00-5523-00) for 10 minutes at room temperature. Following permeabilization, cells were spun down and the supernatant was replaced with 30 μL fluorescently labelled antibodies against the intracellular targets Helios (Helios-APC [BioLegend, Cat #137222, 1:50])]), Aiolos, and Ikaros Ix Permeabilization buffer and staining reactions were incubated for 1 hour at room temperature; protected from light. Subsequently, 30 μL of 1× Permeabilization buffer was added prior to centrifuging the cells and discarding the supernatant. Stained cells were resuspended in 30 μL of flow cytometry staining buffer (PBS+0.5% BSA) and analyzed using an Intellicyt Ique Plus flow cytometer.
Table B-1 lists the maximum observed degradation of the IKZF1 protein and IKZF2 protein as measured in the Human Regulatory Cell T Degradation assay. The results in Table B-1 were rounded to two digits. In the Human Regulatory T Cell Degradation assay, a value of 100% indicated no detectable protein remaining or complete degradation of the protein; and a value of 0% indicated no detectable degradation of the protein by the test compound.

[2] = molecular target: T1, IKZF2 Helios; assay: Human Regulatory T Cell Reprogramming Assay (IKZF2 Helios); assay type: cell-based; parameters: T cells were isolated from fresh healthy leukopaks; endogenous in cells; host or cells: FACS-sorted primary human CD4+ CD127low CD25+ Treg cells from healthy leukopaks; settings: CD4+ CD127low CD25+ Treg cells, 12-13 days; for DC50: concentration reducing protein level by 50% vs DMSO; for Dmax: Regulatory T cell, human, read-out: Maximum Observed Degradation IKZF2 Helios
Method: Human CD4^+ T cells were isolated from fresh healthy leukopaks (Stemcell Technologies) using the RosetteSep Human CD4^+ T cell enrichment cocktail (Stemcell Technologies) and Ficoll density gradient centrifugation. Leukopaks were diluted with an equal volume of phosphate-buffered saline (PBS [Gibco]) supplemented with 2% fetal bovine serum (FBS, VWR Lifescience) and incubated with RosetteSep Human CD4^+ T cell enrichment cocktail for 20 minutes before layering on Ficoll-Paque Plus solution (GE Health Care). The cell-rich interface layer was harvested and washed twice with PBS supplemented with 2% FBS. Regulatory T cells were then isolated manually using the EasySep Human CD4 CD1271WCD25^+ Regulatory T cell isolation kit (Stemcell Technologies) according to the manufacturer's instructions. Cells were rested overnight in Roswell Park Memorial Institute (RPMI) 1640 media (Gibco) supplemented with 10% FBS, Pen/Strep (Gibco), MEM-NEAA (Gibco), and sodium pyruvate (Gibco) in a humidified incubator (37° C., 5% CO2). Cells were then stained for CD4 (clone: RPA-T4, Biolegend), CD25 (clone: 2A3, BD Biosciences), and CD127 (clone: hIL-7R-M21, BD Biosciences). CD4^+ CD127^lowCD25^+ cells were sorted on a BD FACS Aria Fusion sorter to a purity of 95% or greater. Sorted cells were immediately used or cryopreserved for downstream assays.
Fresh or cryopreserved FACS-sorted CD4^+ CD127^lowCD25^+ Treg cells were cultured at 25,000-50,000 cells/well of 96-well round bottom plates in RPMI 1640 media (Gibco) supplemented with 10% FBS, Pen/Strep (Gibco), MEM-NEAA (Gibco), and sodium pyruvate (Gibco). Cells were stimulated with Treg Xpander beads (Thermo Fisher) at cells-to-beads ratio of 1:4 in the presence of 500 U/mL recombinant human IL-2 (Proleukin). Compounds were added at titrated doses and cells were incubated at 37° C., 5% CO2 for 12-13 days. Recombinant human IL-2 and compound were replenished every 2-3 days during the entire culture duration. On day 12 or 13, cells were restimulated with phorbol 12-myristate 13-acetate (PMA) and ionomycin in the presence of the protein transport inhibitors brefeldin A and monensin (eBioscience Cell Stimulation Cocktail plus protein transport inhibitors, 500×, Catalog number 00-4975-93) before proceeding with flow cytometry staining and analysis.
For flow cytometry staining, cells were washed twice with flow cytometry staining buffer (Thermo Fisher) and incubated in Human Tru-stain Fc block (Biolegend) for 10 minutes before adding eFluor780 viability dye (Thermo Fisher) and surface marker antibody cocktail for 30 minutes at 4° C. Cells were then fixed and permeabilized by incubation with FoxP3 transcription factor staining buffer (Thermo Fisher) for 30 minutes at 4° C. as per the kit manufacturer's instructions. Cells were washed twice with the Perm/Wash buffer supplied in the kit as per the manufacturer's instructions and incubated overnight at 4° C. with an intracellular antibody cocktail comprised of antibodies specific for the transcription factors shown in Table C. Cells were washed twice with Perm/Wash buffer and resuspended in flow cytometry staining buffer (Thermo Fisher) prior to acquisition. Sample acquisition and analysis was performed using a BD LSRFortessa (BD Biosciences) flow cytometer. Single stain controls for each fluorochrome were prepared using UltraComp eBead Compensation Beads (Thermo Fisher). Data were analyzed using FlowJo version 10 and GraphPad Prism Software.
Table C-1 lists the maximum observed degradation of the IKZF2 protein and IKZF4 protein as measured in the Human Regulatory T Cell Reprogramming assay. The results in Table C-1 were rounded to two digits. In the Human Regulatory T Cell Reprogramming assay, a value of 100% indicated no detectable protein remaining or complete degradation of the protein; and a value of 0% indicated no detectable degradation of the protein by the test compound.

T1 sequence (Q9UKS7 whole entry): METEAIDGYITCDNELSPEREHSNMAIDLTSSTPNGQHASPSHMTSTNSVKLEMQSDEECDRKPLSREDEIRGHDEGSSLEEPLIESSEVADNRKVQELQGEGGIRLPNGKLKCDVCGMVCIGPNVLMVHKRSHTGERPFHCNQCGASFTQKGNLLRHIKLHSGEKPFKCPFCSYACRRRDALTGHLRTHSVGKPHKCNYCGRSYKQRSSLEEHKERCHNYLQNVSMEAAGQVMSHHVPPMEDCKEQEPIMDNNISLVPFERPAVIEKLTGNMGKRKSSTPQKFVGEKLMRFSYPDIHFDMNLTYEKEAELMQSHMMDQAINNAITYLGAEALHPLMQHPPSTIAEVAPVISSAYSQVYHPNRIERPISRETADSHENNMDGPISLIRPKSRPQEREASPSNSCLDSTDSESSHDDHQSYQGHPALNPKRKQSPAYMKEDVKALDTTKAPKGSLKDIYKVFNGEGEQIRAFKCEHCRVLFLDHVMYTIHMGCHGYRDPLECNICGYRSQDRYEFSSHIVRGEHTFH
T1 sequence (Q96SW2 whole entry): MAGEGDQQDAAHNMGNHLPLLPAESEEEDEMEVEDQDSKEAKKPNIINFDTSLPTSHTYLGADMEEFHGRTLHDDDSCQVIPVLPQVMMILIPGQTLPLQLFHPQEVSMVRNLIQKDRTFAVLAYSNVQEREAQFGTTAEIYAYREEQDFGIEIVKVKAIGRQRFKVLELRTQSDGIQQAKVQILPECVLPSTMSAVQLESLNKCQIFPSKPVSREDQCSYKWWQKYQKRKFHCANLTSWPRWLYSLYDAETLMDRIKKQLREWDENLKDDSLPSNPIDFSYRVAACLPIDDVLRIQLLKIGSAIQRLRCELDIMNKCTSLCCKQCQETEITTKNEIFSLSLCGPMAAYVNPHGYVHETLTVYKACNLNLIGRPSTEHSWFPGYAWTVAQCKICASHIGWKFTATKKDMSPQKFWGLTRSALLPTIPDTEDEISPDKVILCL
T1 sequence (Q16531 whole entry partner): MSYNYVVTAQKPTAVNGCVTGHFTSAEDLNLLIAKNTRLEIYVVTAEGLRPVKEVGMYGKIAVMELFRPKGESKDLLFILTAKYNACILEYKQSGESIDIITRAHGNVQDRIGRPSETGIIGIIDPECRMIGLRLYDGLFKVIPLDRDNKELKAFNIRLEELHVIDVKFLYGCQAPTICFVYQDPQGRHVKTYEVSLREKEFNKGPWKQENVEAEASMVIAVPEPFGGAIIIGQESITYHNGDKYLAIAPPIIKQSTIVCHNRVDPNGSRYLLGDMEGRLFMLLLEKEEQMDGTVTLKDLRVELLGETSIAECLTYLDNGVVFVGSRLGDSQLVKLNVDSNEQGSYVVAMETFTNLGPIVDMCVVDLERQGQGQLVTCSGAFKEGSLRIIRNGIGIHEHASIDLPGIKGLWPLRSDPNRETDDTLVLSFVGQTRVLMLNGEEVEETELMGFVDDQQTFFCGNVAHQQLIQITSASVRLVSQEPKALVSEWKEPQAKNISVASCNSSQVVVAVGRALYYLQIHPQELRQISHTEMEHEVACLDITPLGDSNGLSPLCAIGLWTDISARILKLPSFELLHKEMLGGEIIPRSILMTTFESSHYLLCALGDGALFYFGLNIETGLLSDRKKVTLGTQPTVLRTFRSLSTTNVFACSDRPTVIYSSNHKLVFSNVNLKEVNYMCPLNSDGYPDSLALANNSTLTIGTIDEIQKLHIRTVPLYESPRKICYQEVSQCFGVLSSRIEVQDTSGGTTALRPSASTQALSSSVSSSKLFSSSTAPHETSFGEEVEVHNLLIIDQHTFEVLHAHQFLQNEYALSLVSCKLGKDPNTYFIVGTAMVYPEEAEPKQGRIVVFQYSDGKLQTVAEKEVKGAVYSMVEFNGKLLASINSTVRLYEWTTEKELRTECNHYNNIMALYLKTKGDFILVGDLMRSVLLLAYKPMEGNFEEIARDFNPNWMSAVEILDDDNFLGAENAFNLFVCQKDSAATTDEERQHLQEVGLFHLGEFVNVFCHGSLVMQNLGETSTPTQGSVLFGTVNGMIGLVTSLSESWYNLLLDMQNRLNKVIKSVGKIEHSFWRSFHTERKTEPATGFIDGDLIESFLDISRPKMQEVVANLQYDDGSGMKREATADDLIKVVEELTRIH

Row | Dmax [1] | DC50 [1] | DC50 [2] | Dmax [2] | Structure (SMILES)
1 | 101% | 2.9 nM | 2.2 nM | 92% | O=C1CCC(N2Cc3c(ccc(-c4cc(CN5CC(c6ccccc6)C5)ccn4)c3F)C2=O)C(=O)N1 (stereo not drawn) [Comparative Compound A, 3-(4-fluoro-1-oxo-5-(4-((3-phenylazetidin-1-yl)methyl)pyridin-2-yl)isoindolin-2-yl) piperidine-2,6-dione]
2 | 97% | 11 nM | 25 nM | 90% | Nc1nc(-c2ccc3c(c2)CN(C2CCC(=O)NC2=O)C3=O)ccc1CN1CC2(CCC2)C1 (stereo not drawn) [Comparative Compound B, 3-(5-(5-((2-azaspiro[3.3]heptan-2-yl)methyl)-6-aminopyridin-2-yl)-1-oxoisoindolin-2-yl) piperidine-2,6-dione]
3 | 100% | 10 nM | 38 nM | 85% | Nc1nc(-c2ccc3c(c2F)CN(C2CCC(=O)NC2=O)C3=O)ccc1CN1CC2(CCCOC2)C1 (stereo not drawn) [Example 1, 3-(5-(5-((6-oxa-2-azaspiro[3.5]nonan-2-yl)methyl)-6-aminopyridin-2-yl)-4-fluoro-1-oxoisoindolin-2-yl) piperidine-2,6-dione]
